{"source": "patent US10251865B2", "about": "“Method of activating regulatory T cells with alpha-2B adrenergic receptor agonists” (Allergan, Inc., priority 2010, dated 2019)", "key": {"[1]": {"test_system": "IL-2", "experiment": "IL-2 levels in tissues from SNL rats (Luminex cytokine analysis)", "type": "in vivo, rat", "details": "for IL-2 level, Ipsilateral DRGL4 / IL-2 level, Ipsilateral DRGL5, L6 / IL-2 level, Ipsilateral spinal cord / IL-2 level, Serum: 2.4 mg/kg/day via osmotic minipump, mean ± SEM", "method": "(§1) The SNL (or Chung) Model in the rat is an accepted standard animal model of neuropathic pain and is thought to mimic the human causalgia condition with respect to symptoms (guarding behavior, mechanical allodynia) and alleviation by pharmacological agents. […] The SNL Model is performed by tightly ligating the L-5 and L-6 spinal nerves, which produces tactile allodynia or sensitivity to light touch as described (Kim and Chung, 1992). Male sprague-dawley rats (100-120 grams; Charles River, Wilmington, Mass.) were anesthetized through inhalation of an isoflurane/oxygen mix. The surgical site was shaved and prepared with betadine. An incision was made from the thoracic vertebra XIII toward down the sacrum. The muscle was separated from the spinal vertebra (left side) at the L4-S2 levels. The L6 vertebra was located and then the transverse process was carefully removed with a small rongeur to visually identify the L4-L6 spinal nerves. The L5 and L6 spinal nerves was isolated and tightly ligated with 6-0 silk thread. A complete homeostasis was confirmed and then the wound was sutured. The duration of the surgery was approximately 20 minutes. A small amount of antibiotic ointment was applied to the incised area and the animals were transferred to a plastic recovery cage under a regulated heat-temperature lamp. Animals were not given any topical or local anesthetics post-operatively because they will inhibit the development of the pain syndrome, which is the phenomenon to be studied.\nCompound A was formulated in 50% DMSO (Sigma, St. Louis, Mo.). This solution was loaded into the osmotic minipumps (Model 1007D, Alzet Corp., Palo Alto, Calif.) set to deliver the drug at a rate of 0.5 ul/hr resulting in a final dose of 2.4 mg/kg/day. The vehicle for these studies is 50% DMSO administered via osmotic minipumps at a rate of 0.5 ul/hr/kg.\nThe levels of cytokines were measured with a sensitive, fluorescent multiplex immunobead assay (Luminex; Biosource-Invitrogen, Carlsbad, Calif.). 9 plex rat cytokine/chemokine (RCYTO-80K-09) panel from Millipore was used. Cytokine levels in samples were analyzed by using the corresponding Millipore cytokine Beadmate pairs. For the Luminex assay, a 96-well filter plate (Millipore) was pre-wetted with 25 μl of Beadlyte cytokine assay buffer. A vacuum manifold (Millipore, Billerica, Mass.) was used to aspirate the buffer from the wells. 25 μl of sample was placed in each well. The beads (25 μl) were pipetted into the wells. Standard curves for each cytokine were generated in duplicate by placing 25 μl of the appropriate dilution of standards purchased from Millipore. The plate was incubated overnight with gentle shaking in the dark at 4° C. Beads were washed with Beadlyte cytokine assay buffer (Millipore) and wash buffer was eliminated using a vacuum manifold. 25 μl of the appropriate biotin-conjugated secondary antibody (Millipore) was added to each well for 90 minutes at room temperature with gentle shaking. Beads were incubated with Beadlyte streptavidin-phycoerythrin (1:25 dilution in Beadlyte assay buffer) for 30 minutes at room temperature with gentle shaking. Beads were washed, resuspended in 125 μl of Beadlyte buffer, and analyzed by Luminex 100 instrument (Luminex Corporation, Austin, Tex.). The mean fluorescence intensities obtained from 50 beads per cytokine minimum were analyzed using Upstate Beadview software. Standard curves were generated (8 data points including a zero standard run in duplicate) using a four- or five-parametric logistic curve. R-squared values were between 0.99 and 1. Data are expressed in pg/ml or ng/ml values."}, "[2]": {"test_system": "SNL Rat Model of Allodynic Neuropathic Pain", "experiment": "Allodynia reversal (Von Frey) in the SNL Rat Model of Allodynic Neuropathic Pain", "type": "in vivo", "details": "SNL rats, 3 mg/kg BID SC alone", "method": "as §1\nThe allodynia is quantitated in the animals having received the Chung surgery by stimulation with a series of 8 Von Frey hairs on the mid planter area of the surgical hind paw in the up-down manner as described in the literature (Dixon, 1980). Von Frey hairs are applied in an up-down manner depending on the response until the 50% threshold is established. The Von Frey hairs are applied to the plantar surface of the surgical paw with just enough force to bend them. A positive response is recorded if the paw is sharply withdrawn. Eight Von Frey hairs were used 3.61, 3.84, 4.08, 4.31, 4.56, 4.74, 4.93 and 5.18 yielding a gram force of 0.25-15 grams.\n[formula] • Mean±SEM: • Mean=average of allodynia reversals • SEM=STDEV/SQ ROOT of n\nTesting with compounds is done 2-3 weeks after surgery to establish stable allodynia. In all experimental animals, baseline measurements were taken prior to drug administration and then at 24 hours and 5-23 days post dosing with Alzet osmotic minipump. The investigator was blinded to the identity of the drug groups. The % allodynia reversal is calculated as: [(Postdrug threshold−Predrug threshold)/(15-Predrug threshold)]×100.\nCompound B was formulated in 50% DMSO (dimethyl sulfoxide; Sigma, St. Louis, Mo.). This solution was dosed orally TID at a dose of 0.3 or 1 mg/kg. For dosing in the osmotic minipumps (Model 1007D, Alzet Corp., Palo Alto, Calif.) the compound was loaded onto the pumps set to deliver a final dose of either 1 or 3 mg/kg/day. The vehicle for these studies is 50% DMSO.\nCompound C was formulated first in 100% DMSO (Sigma, St. Louis, Mo.), then diluted down in 30% DMSO for a 10 mg/ml solution; 15% DMSO for a 3 mg/ml solution and further dilutions were made in water. The compound was dosed orally TID at a dose of either 0.3 or 1 mg/kg for a total daily dose of 1 or 3 mg/kg/day, respectively."}, "[3]": {"test_system": "SNL Rat Model of Allodynic Neuropathic Pain", "details": "background statement on the model, cited from earlier work"}, "[4]": {"details": "Table 3 study, mean % MPE ± SEM"}}, "data": [{"smiles": "OCCNC(=S)NCc1cccc(Cl)c1F", "note": "[Compound A]", "values": [{"measurement": "IL-2 level, Ipsilateral DRGL4", "setting": "[1]; 24 hours", "value": "101.63 ± 20.55", "unit": "pg/mL"}, {"measurement": "IL-2 level, Ipsilateral DRGL5, L6", "setting": "[1]; 24 hours", "value": "211 ± 33.72", "unit": "pg/mL"}, {"measurement": "IL-2 level, Ipsilateral spinal cord", "setting": "[1]; 24 hours", "value": "345 ± 19.34", "unit": "pg/mL"}, {"measurement": "IL-2 level, Serum", "setting": "[1]; 24 hours", "value": "978 ± 77.13", "unit": "pg/mL"}, {"measurement": "IL-2 level, Ipsilateral DRGL4", "setting": "[1]; 5 days", "value": "69.52 ± 9.42", "unit": "pg/mL"}, {"measurement": "IL-2 level, Ipsilateral DRGL5, L6", "setting": "[1]; 5 days", "value": "138.35 ± 22.59", "unit": "pg/mL"}, {"measurement": "IL-2 level, Ipsilateral spinal cord", "setting": "[1]; 5 days", "value": "351.75 ± 17.19", "unit": "pg/mL"}, {"measurement": "IL-2 level, Serum", "setting": "[1]; 5 days", "value": "380.25 ± 61.67", "unit": "pg/mL"}, {"measurement": "spinal nerve ligation surgery-induced increase of IL-2 levels", "setting": "[1]; result in words", "value": "attenuated"}]}, {"smiles": "C=CC[C@@H]1/C=C(\\C)C[C@H](C)C[C@H](OC)[C@H]2O[C@@](O)(C(=O)C(=O)N3CCCC[C@H]3C(=O)O[C@H](/C(C)=C/[C@@H]3CC[C@@H](O)[C@H](OC)C3)[C@H](C)[C@@H](O)CC1=O)[C@H](C)C[C@@H]2OC", "note": "[FK506, reference compound]", "values": [{"measurement": "% Allodynia Reversal 24 hr post", "setting": "[2]; Table 2 study", "value": "−5.77 ± 3.43", "unit": "%"}, {"measurement": "% Allodynia Reversal 7 day post", "setting": "[2]; Table 2 study", "value": "−6.39 ± 4.85", "unit": "%"}, {"measurement": "% Allodynia Reversal 24 hr post", "setting": "[2]; [4]", "value": "−0.53 ± 6.21", "unit": "%"}, {"measurement": "% Allodynia Reversal 23 day post", "setting": "[2]; [4]", "value": "2.01 ± 5.86", "unit": "%"}]}, {"smiles": "NCC1(CC(=O)O)CCCCC1", "note": "[Gabapentin]", "values": [{"measurement": "alleviation of allodynia", "setting": "[3]; 30 mg/kg p.o.", "value": 50, "unit": "%"}]}, {"smiles": "CN1CC[C@]23c4c5ccc(O)c4O[C@H]2[C@@H](O)C=C[C@H]3[C@H]1C5", "note": "[morphine]", "values": [{"measurement": "alleviation of tactile allodynia", "setting": "[3]", "value": "does not alleviate"}]}]}
